Source: the NIST ThermoML archive (doi:10.1016/j.tca.2006.04.001)

Details: Liquid, Pycnometric method

CCCCCCCCCCCCCCCCCCCCC [heneicosane]
Details	specific volume [m3/kg]
313.65 K	0.001285
315.75 K	0.001283
317.65 K	0.001286
319.65 K	0.001288
321.55 K	0.001289
323.55 K	0.001291
325.45 K	0.001294
327.45 K	0.001296
329.35 K	0.001299
331.25 K	0.001302
333.25 K	0.001302
335.15 K	0.001304
337.15 K	0.001307
339.05 K	0.001309
341.05 K	0.00131
342.95 K	0.001313
344.85 K	0.001315
346.85 K	0.001317
348.75 K	0.001321
350.75 K	0.001324
352.65 K	0.001325
354.65 K	0.001329
354.85 K	0.001329
356.55 K	0.001331
358.45 K	0.001333
360.45 K	0.001335
362.35 K	0.001337
364.35 K	0.00134
366.25 K	0.001342
368.15 K	0.001344
370.15 K	0.001349
372.05 K	0.00135
374.05 K	0.001354
375.45 K	0.001353
375.95 K	0.001354
377.95 K	0.001358
379.85 K	0.001361
381.75 K	0.001362
383.75 K	0.001366
385.65 K	0.001367
387.65 K	0.001369
389.55 K	0.001373
391.55 K	0.001373
393.45 K	0.001377
395.35 K	0.00138
396.05 K	0.00138
397.35 K	0.001381
399.25 K	0.001386
401.25 K	0.001384
403.15 K	0.001387
405.15 K	0.001392
407.05 K	0.001394
408.95 K	0.001396
410.95 K	0.001401
412.85 K	0.001401
414.85 K	0.001404
416.65 K	0.001408
416.75 K	0.001409
418.65 K	0.00141
420.65 K	0.001411
422.55 K	0.001417
424.55 K	0.001419
426.45 K	0.001421
428.45 K	0.001423
430.35 K	0.001426
432.25 K	0.001432
434.25 K	0.001432
436.15 K	0.001436
437.25 K	0.001437
438.15 K	0.001437
440.05 K	0.001443
442.05 K	0.001444
443.95 K	0.001448
445.85 K	0.00145
447.85 K	0.001454
449.75 K	0.001455
451.75 K	0.001458
453.65 K	0.00146
455.65 K	0.001464
457.55 K	0.001467
457.85 K	0.001468
459.45 K	0.00147
461.45 K	0.001471
463.35 K	0.001476
465.35 K	0.001479
467.25 K	0.001484
469.15 K	0.001485
471.15 K	0.001489
473.05 K	0.001491
475.05 K	0.001492
476.95 K	0.001497
478.45 K	0.001498
478.95 K	0.001502
480.85 K	0.001503
482.75 K	0.001505
484.75 K	0.001511
486.65 K	0.001513
488.65 K	0.001516
488.75 K	0.001517
490.55 K	0.001519
492.55 K	0.001521
494.45 K	0.001523
496.35 K	0.00153
498.35 K	0.001531
500.25 K	0.001537
502.25 K	0.001536
504.15 K	0.001543
506.15 K	0.001544
508.05 K	0.00155
509.95 K	0.001551
511.95 K	0.001554
513.85 K	0.001559
515.85 K	0.001564
517.75 K	0.001567
519.65 K	0.001569
521.65 K	0.001575
523.55 K	0.001575
525.55 K	0.001582
527.45 K	0.001586
529.45 K	0.001588
531.35 K	0.001588
533.25 K	0.001596
535.25 K	0.0016
537.15 K	0.001603
539.15 K	0.001606
541.05 K	0.001612
543.05 K	0.001614
544.95 K	0.001617
546.85 K	0.001621
548.85 K	0.001626
550.75 K	0.001626
552.75 K	0.001634
554.65 K	0.001635
556.65 K	0.001639
558.55 K	0.001643
560.45 K	0.001648
562.45 K	0.00165
564.35 K	0.001657
566.35 K	0.001659

CCCCCCCCCCCCCCCC [hexadecane]
Details	specific volume [m3/kg]
298 K	0.001313
323 K	0.001344
348 K	0.001376
373 K	0.001411
398 K	0.001447
423 K	0.001486
448 K	0.001529
473 K	0.001575
498 K	0.001626
523 K	0.001682
548 K	0.001744
573 K	0.001811
